Measured values reported in US11673901B2, “Polycyclic compounds as allosteric SHP2 inhibitors” (Revolution Medicines, Inc., priority 2017, dated 2023).

These compounds were tested against SHP2 (Homo sapiens (Human), UniProt Q06124) (assay: SHP2 allosteric inhibition assay (DiFMUP prompt fluorescence)). Details: 0.2 nM SHP2 activated with 0.5 μM Activating Peptide 1 or 2; substrate DiFMUP; Table 1.
Type: biochemical
From the text: Without wishing to be bound by theory, SHP2 is allosterically activated through binding of bis-tyrosyl-phosphorylated peptides to its Src Homology 2 (SH2) domains. The latter activation step leads to the release of the auto-inhibitory interface of SHP2, which in turn renders the SHP2 protein tyrosine phosphatase (PTP) active and available for substrate recognition and reaction catalysis. The catalytic activity of SHP2 was monitored using the surrogate substrate DiFMUP in a prompt fluorescence assay format.
The phosphatase reactions were performed at room temperature in 96-well black polystyrene plate, flat bottom, non-binding surface (Corning, Cat #3650) using a final reaction volume of 100 μL and the following assay buffer conditions: 50 mM HEPES, pH 7.2, 100 mM NaCl, 0.5 mM EDTA, 0.05% P-20, 1 mM DTT.
The inhibition of SHP2 by compounds of the invention (concentrations varying from 0.00005-10 μM) was monitored using an assay in which 0.2 nM of SHP2 was incubated with 0.5 μM of Activating Peptide 1 (sequence: H2N-LN(pY)IDLDLV(dPEG8)LST(pY)ASINFQK-amide) or Activating Peptide 2 (sequence: H2N-LN(pY)AQLWHA(dPEG8)LTI(pY)ATIRRF-amide). After 30-60-minutes incubation at 25° C., the surrogate substrate DiFMUP (Invitrogen, Cat #D6567) was added to the reaction and activity was determined by a kinetic read using a microplate reader (Envision, Perkin-Elmer or Spectramax M5, Molecular Devices). The excitation and emission wavelengths were 340 nm and 450 nm, respectively. Initial rates were determined from a linear fit of the data, and the inhibitor dose response curves were analyzed using normalized IC50 regression curve fitting with control based normalization.

SHP2, sequence (Q06124 whole entry): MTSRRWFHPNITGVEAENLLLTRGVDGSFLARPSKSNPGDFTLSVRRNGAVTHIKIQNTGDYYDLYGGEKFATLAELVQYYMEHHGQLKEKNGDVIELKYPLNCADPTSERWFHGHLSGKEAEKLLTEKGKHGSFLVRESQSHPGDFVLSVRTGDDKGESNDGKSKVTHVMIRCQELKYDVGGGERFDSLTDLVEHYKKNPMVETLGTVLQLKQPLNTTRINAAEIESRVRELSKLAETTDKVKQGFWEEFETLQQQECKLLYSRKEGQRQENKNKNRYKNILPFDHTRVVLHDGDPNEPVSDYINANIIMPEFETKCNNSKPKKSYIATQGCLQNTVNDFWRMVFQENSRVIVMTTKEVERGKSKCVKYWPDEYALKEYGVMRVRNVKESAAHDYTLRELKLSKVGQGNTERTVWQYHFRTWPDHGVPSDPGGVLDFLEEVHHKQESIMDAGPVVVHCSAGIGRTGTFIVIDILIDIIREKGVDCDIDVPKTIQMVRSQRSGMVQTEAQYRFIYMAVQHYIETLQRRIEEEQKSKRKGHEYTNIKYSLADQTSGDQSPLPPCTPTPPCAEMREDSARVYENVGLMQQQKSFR

SMILES	IC50
C[C@@H]1OCC2(CCN(c3ncc(Sc4ccnc(N)c4Cl)c4nccn34)CC2)[C@@H]1N [Compound 1 (Example 1)]	1 nM
CC1(N)CCN(c2ncc(Sc3ccnc(N)c3Cl)c3nccn23)CC1 [Compound 2 (Example 2)]	120 nM
C[C@@H]1OCC2(CCN(c3ncc(Sc4ccnc(N)c4Cl)c4ncnn34)CC2)[C@@H]1N [Compound 4 (Example 4)]	29 nM
Cc1nc(N2CCC3(CC2)CO[C@@H](C)[C@H]3N)n2cnnc2c1-c1cccc(Cl)c1Cl [Compound 6 (Example 6)]	10 nM

Same assay, conditions: 0.2 nM SHP2 activated with 0.5 μM Activating Peptide 1 or 2; substrate DiFMUP; Table 2, class symbols

SMILES	IC50
C[C@@H]1OCC2(CCN(c3ncc(Sc4ccnc(N)c4Cl)c4nccn34)CC2)[C@@H]1N [Compound 1, (3S,4S)-8-{8-[(2-amino-3-chloropyridin-4-yl)sulfanyl]imidazo[1,2-c]pyrimidin-5-yl}-3-methyl-2-oxa-8-azaspiro[4.5]decan-4-amine]	≤ 50 nM
CC1(N)CCN(c2ncc(Sc3ccnc(N)c3Cl)c3nccn23)CC1 [Compound 2, 4-{[5-(4-amino-4-methylpiperidin-1-yl)imidazo[1,2-c]pyrimidin-8-yl]sulfanyl}-3-chloropyridin-2-amine]	50 to 500 nM
CC1(N)CCN(c2ncc(-c3cccc(Cl)c3Cl)c3nccn23)CC1 [Compound 3, 1-[8-(2,3-dichlorophenyl)imidazo[1,2-c]pyrimidin-5-yl]-4-methylpiperidin-4-amine]	> 500 nM
C[C@@H]1OCC2(CCN(c3ncc(Sc4ccnc(N)c4Cl)c4ncnn34)CC2)[C@@H]1N [Compound 4, (3S,4S)-8-{8-[(2-amino-3-chloropyridin-4-yl)sulfanyl]-[1,2,4]triazolo[1,5-c]pyrimidin-5-yl}-3-methyl-2-oxa-8-azaspiro[4.5]decan-4-amine]	≤ 50 nM
N[C@@H]1CCCC12CCN(c1ccc(-c3cccc(Cl)c3Cl)c3cncn13)CC2 [Compound 5, (1R)-8-[8-(2,3-dichlorophenyl)imidazo[1,5-a]pyridin-5-yl]-8-azaspiro[4.5]decan-1-amine]	> 500 nM
Cc1nc(N2CCC3(CC2)CO[C@@H](C)[C@H]3N)n2cnnc2c1-c1cccc(Cl)c1Cl [Compound 6, (3S,4S)-8-[8-(2,3-dichlorophenyl)-7-methyl-[1,2,4]triazolo[4,3-c]pyrimidin-5-yl]-3-methyl-2-oxa-8-azaspiro[4.5]decan-4-amine]	≤ 50 nM
CC1(N)CCN(c2ncc(Sc3ccnc(N)c3Cl)c3nncn23)CC1 [Compound 7, 4-{[5-(4-amino-4-methylpiperidin-1-yl)-[1,2,4]triazolo[4,3-c]pyrimidin-8-yl]sulfanyl}-3-chloropyridin-2-amine]	50 to 500 nM
Cc1nc(N2CCC3(CC2)CO[C@@H](C)[C@H]3N)n2ccnc2c1-c1cccc(Cl)c1Cl [Compound 8, (3S,4S)-8-[8-(2,3-dichlorophenyl)-7-methylimidazo[1,2-c]pyrimidin-5-yl]-3-methyl-2-oxa-8-azaspiro[4.5]decan-4-amine]	≤ 50 nM
COc1cccc(-c2c(C)nc(N3CCC4(CC3)CO[C@@H](C)[C@H]4N)n3ccnc23)c1Cl [Compound 9, (3S,4S)-8-[8-(2-chloro-3-methoxyphenyl)-7-methylimidazo[1,2-c]pyrimidin-5-yl]-3-methyl-2-oxa-8-azaspiro[4.5]decan-4-amine]	≤ 50 nM
C[C@@H]1OCC2(CCN(c3ncc(Sc4ccnc(N5CC(O)C5)c4Cl)c4nccn34)CC2)[C@@H]1N [Compound 10, 1-[4-({5-[(3S,4S)-4-amino-3-methyl-2-oxa-8-azaspiro[4.5]decan-8-yl]imidazo[1,2-c]pyrimidin-8-yl}sulfanyl)-3-chloropyridin-2-yl]azetidin-3-ol]	≤ 50 nM
C[C@@H]1OCC2(CCN(c3ncc(Sc4cccc(Cl)c4Cl)c4nccn34)CC2)[C@@H]1N [Compound 11, (3S,4S)-8-{8-[(2,3-dichlorophenyl)sulfanyl]imidazo[1,2-c]pyrimidin-5-yl}-3-methyl-2-oxa-8-azaspiro[4.5]decan-4-amine]	≤ 50 nM
C[C@@H]1OCC2(CCN(c3ncc(Sc4ccnc(N5CC(S(C)(=O)=O)C5)c4Cl)c4nccn34)CC2)[C@@H]1N [Compound 12, (3S,4S)-8-(8-{[3-chloro-2-(3-methanesulfonylazetidin-1-yl)pyridin-4-yl]sulfanyl}imidazo[1,2-c]pyrimidin-5-yl)-3-methyl-2-oxa-8-azaspiro[4.5]decan-4-amine]	≤ 50 nM
C[C@@H]1OCC2(CCN(c3ncc(Sc4ccnc(N5CC(C#N)C5)c4Cl)c4nccn34)CC2)[C@@H]1N [Compound 13, 1-[4-({5-[(3S,4S)-4-amino-3-methyl-2-oxa-8-azaspiro[4.5]decan-8-yl]imidazo[1,2-c]pyrimidin-8-yl}sulfanyl)-3-chloropyridin-2-yl]azetidine-3-carbonitrile]	≤ 50 nM
C[C@@H]1OCC2(CCN(c3ncc(Sc4cccc(C(=O)N(C)C)c4Cl)c4nccn34)CC2)[C@@H]1N [Compound 14, 3-({5-[(3S,4S)-4-amino-3-methyl-2-oxa-8-azaspiro[4.5]decan-8-yl]imidazo[1,2-c]pyrimidin-8-yl}sulfanyl)-2-chloro-N,N-dimethylbenzamide]	50 to 500 nM
C[C@@H]1OCC2(CCN(c3ncc(Sc4ccnc5[nH]ccc45)c4nccn34)CC2)[C@@H]1N [Compound 15, (3S,4S)-3-methyl-8-(8-{1H-pyrrolo[2,3-b]pyridin-4-ylsulfanyl}imidazo[1,2-c]pyrimidin-5-yl)-2-oxa-8-azaspiro[4.5]decan-4-amine]	≤ 50 nM
C[C@@H]1OCC2(CCN(c3ncc(Sc4ccnc(N)c4)c4nccn34)CC2)[C@@H]1N [Compound 16, (3S,4S)-8-{8-[(2-aminopyridin-4-yl)sulfanyl]imidazo[1,2-c]pyrimidin-5-yl}-3-methyl-2-oxa-8-azaspiro[4.5]decan-4-amine]	50 to 500 nM
C[C@@H]1OCC2(CCN(c3ncc(Sc4ccnc5nc[nH]c45)c4nccn34)CC2)[C@@H]1N [Compound 17, (3S,4S)-8-(8-{1H-imidazo[4,5-b]pyridin-7-ylsulfanyl}imidazo[1,2-c]pyrimidin-5-yl)-3-methyl-2-oxa-8-azaspiro[4.5]decan-4-amine]	≤ 50 nM
Cc1cc(Sc2cnc(N3CCC4(CC3)CO[C@@H](C)[C@H]4N)n3ccnc23)cc(N)n1 [Compound 18, (3S,4S)-8-{8-[(2-amino-6-methylpyridin-4-yl)sulfanyl]imidazo[1,2-c]pyrimidin-5-yl}-3-methyl-2-oxa-8-azaspiro[4.5]decan-4-amine]	50 to 500 nM
Nc1nccc(Sc2cnc(N3CC4(CC(N)C4)C3)n3ccnc23)c1Cl [Compound 19, 2-{8-[(2-amino-3-chloropyridin-4-yl)sulfanyl]imidazo[1,2-c]pyrimidin-5-yl}-2-azaspiro[3.3]heptan-6-amine]	> 500 nM
Nc1nccc(Sc2cnc(N3CCC4(CC3)CNC4)n3ccnc23)c1Cl [Compound 20, 3-chloro-4-[(5-{2,7-diazaspiro[3.5]nonan-7-yl}imidazo[1,2-c]pyrimidin-8-yl)sulfanyl]pyridin-2-amine]	50 to 500 nM
Nc1nccc(Sc2cnc(N3CC[C@H](N)C3)n3ccnc23)c1Cl [Compound 21, 4-({5-[(3S)-3-aminopyrrolidin-1-yl]imidazo[1,2-c]pyrimidin-8-yl}sulfanyl)-3-chloropyridin-2-amine]	> 500 nM
NCCC1CN(c2ncc(Sc3ccnc(N)c3Cl)c3nccn23)C1 [Compound 22, 4-({5-[3-(2-aminoethyl)azetidin-1-yl]imidazo[1,2-c]pyrimidin-8-yl}sulfanyl)-3-chloropyridin-2-amine]	> 500 nM
